Like-named read-outs stand apart in the source and are kept apart here. No end group written: not given here.
Key:
human whole blood = test: hemolysis risk test in human whole blood; type: cell-based; settings: for Hemolysis rate (%): Human, 37 °C 1 h
Description: This test example assessed whether a polypeptide compound causes hemolytic reactions in rat, rabbit, and human whole blood.
Preparation of red blood cell suspension: 100 µL of fresh whole blood was collected, and 900 µL of 1× PBS solution was then added. The mixture was shaken on a plate shaker at 30 rpm for 5 min and then centrifuged at 1000 g for 5 min, and the supernatant was discarded. The above washing step was repeated until the supernatant no longer appeared red. The suspension was set aside for later use.
Preparation of test polypeptide solutions: An appropriate amount of 1× PBS solution was added to a powdered polypeptide, and the polypeptide was dissolved to form a standard stock solution. […] Meanwhile, blank 1× PBS was used as a negative control, and a 1× PBS solution containing 0.1% Triton X-100 was used as a positive control.
Incubation: A test solution (500 µL) was added to the red blood cell suspension, and then the mixture was well shaken on a plate shaker at 30 rpm for 5 min, incubated at 37 °C for 1 h, and centrifuged at 1000 g for 5 min.
100 µL of the supernatant was transferred to a single well of a microplate. The absorbance at 540 nm was measured using a SpectraMax M5 microplate reader, and data analysis was performed using GraphPad Prism 9. The hemolysis rate (%) was calculated using the formula: (test sample absorbance - negative control absorbance) / (positive control absorbance - negative control absorbance) × 100%. A rate of less than 5% indicates the absence of hemolysis, while a rate of greater than 5% indicates the presence of hemolysis. Table 3. Testing of the hemolysis risk of the polypeptide compound

histamine release [1] = test: ability to induce histamine release in beagle dogs (plasma); type: in vivo; settings: beagle dog plasma, 1.2 nmol/g
Description: With beagle dogs as test animals, the ability of a polypeptide compound administered via single intravenous infusion to induce histamine release in dogs (plasma) was studied.
This test was performed synchronously with Test Examples 3.9, with four animals per group and blood collection time points set as follows: before administration (0 h), and 2 min, 5 min, and 15 min after the end of intravenous infusion.
Sample analysis and data processing were performed with reference to the methods in 3.7.3. Table 10. Histamine levels at different time points

histamine release [2] = test: ability to induce histamine release in rats (plasma); type: in vivo, SD rats; settings: rat plasma, 3 nmol/g
Description: With male SD rats as test animals, the ability of a polypeptide compound administered via single intravenous bolus injection to induce histamine release in rats (plasma) was studied.
This test was performed synchronously with Test Examples 3.6, with three animals per group and blood collection time points set as follows: before administration, and 2 min, 8 min, and 15 min after the end of intravenous bolus injection.
The histamine and 3-methylhistamine levels at each time point were determined by LC-MS/MS. LC-MS detection of compounds: (1) Chromatographic conditions: mobile phase A: acetonitrile/water/100 mM ammonium acetate, 50/45/5 (v/v/v), 2% FA; mobile phase B: acetonitrile/100 mM ammonium acetate, 95/5 (v/v), 2% FA; flow rate: 0.4 mL/min; chromatography column: Waters BEH HILIC 1.7 µm, 2.1 × 150 mm; column temperature: 50 °C; injection volume: 20 µL. (2) Mass-spectrometric conditions: The mass spectrometry analysis used an electrospray ionization (ESI) source, a positive ion analysis mode, and a multi-reaction monitoring (MRM) scan mode.
Sample pretreatment: A 30 µL plasma sample was taken and added to 200 µL of an acetonitrile solution containing tetradeuterated histamine (D4-histamine, 100 ng/mL). The mixture was vortexed for 1 min and then centrifuged at 5800 rpm for 10 min, and 100 µL of the supernatant was transferred to a sample tray and injected into an instrument for analysis. […] Table 7. Histamine levels at different time points

[3] = pharmacokinetic study in beagle dogs, single intravenous infusion; type: in vivo; settings: for AUClast/dose / T1/2 / AUC(0-inf) / Cmax / MRT / Tmax: beagle dogs, intravenous infusion over 10 min, 1.2 nmol/g; for Tmax: read-out: Tmax
Description: With standard beagle dogs as test animals, the pharmacokinetic behavior of a polypeptide compound administered via single intravenous infusion in beagle dogs (plasma) was studied.
For polypeptide compound 22, two dose groups were set: 1.2 nmol/g and 0.4 nmol/g. For NA-1, one dose group was set: 1.2 nmol/g. Each group consisted of four animals, with an equal number of males and females. The polypeptide compound was dissolved in 1× PBS, and the polypeptide compound solution was then administered via intravenous infusion over 10 min. The blood collection time points were as follows: before infusion (0 h), 5 min after the start of bolus injection, and 0 min, 2 min, 5 min, 10 min, 15 min, 30 min, 1 h, 2 h, 4 h, 8 h, and 24 h after the end of bolus injection. At each time point, 0.5 mL of blood was collected and transferred to an EDTA-K2 anticoagulation centrifuge tube. Meanwhile, 50 µL of a protease inhibitor was added. After thorough mixing, the mixture was centrifuged at 2000 g for 10 min (4 °C), and the plasma was separated within 1 h, aliquoted into cryopreservation tubes, and stored at -60 to -90 °C. The blood collection-to-centrifugation process was performed under ice bath conditions.
The plasma concentrations of the test compounds were determined using the method in Test Example 3.4.3. Plasma concentration-time curves were plotted, and the pharmacokinetic parameters were calculated using PKSolver software.

Sequence: YGRKKRRQRRRKLSSIESDV [NA-1, YGRKKRRQR RRKLSSIESDV, reference compound]
- Hemolysis rate (%) (human whole blood; 1.0 µM): -0.52%
- Hemolysis rate (%) (human whole blood; 2.5 µM): -0.59%
- Hemolysis rate (%) (human whole blood; 5.0 µM): -0.49%
- Hemolysis rate (%) (human whole blood; 10 µM): -0.54%
- Hemolysis rate (%) (human whole blood; 25 µM): -0.53%
- Hemolysis rate (%) (human whole blood; 50 µM): 0.06%
- hemolysis rates (human whole blood; human whole blood, concentration range of 1 to 50 µM): less than 5%
- Histamine levels (sums of detected histamine and 3-methylhistamine) (histamine release [1]; 0 min (before administration)): 7.08±3.15
- Histamine levels (sums of detected histamine and 3-methylhistamine) (histamine release [1]; 2 min after the end of intravenous infusion): 40.47±64.51
- Histamine levels (sums of detected histamine and 3-methylhistamine) (histamine release [1]; 5 min after the end of intravenous infusion): 73.95±131.85
- Histamine levels (sums of detected histamine and 3-methylhistamine) (histamine release [1]; 15 min after the end of intravenous infusion): 68.80±124.89
- Histamine levels (sums of detected histamine and 3-methylhistamine) (histamine release [2]; 0 min (before administration)): 21.0±5.9
- Histamine levels (sums of detected histamine and 3-methylhistamine) (histamine release [2]; 2 min after the end of intravenous bolus injection): 390.7±164.2
- Histamine levels (sums of detected histamine and 3-methylhistamine) (histamine release [2]; 8 min after the end of intravenous bolus injection): 86.6±36.6
- Histamine levels (sums of detected histamine and 3-methylhistamine) (histamine release [2]; 15 min after the end of intravenous bolus injection): 48.3±19.2
- AUClast/dose ([3]; Female): 284
- T1/2 ([3]; Female): 2.4 min
- AUClast/dose ([3]; Male): 363
- T1/2 ([3]; Male): 3 min
- half-life ([3]; both sexes, beagle, dog, in vivo, iv, dogs, same dose (1.2 nmol/g), read-out: average T1/2 (converted)): 2.7 min
- AUC(0-inf) ([3]; dog, in vivo, Female): 855 ng·h/mL
- Cmax ([3]; dog, in vivo, Female): 5030 ng/mL
- MRT ([3]; dog, in vivo, Female): 9 min
- Tmax ([3]; dog, in vivo, Female): 7.8 min
- AUC(0-inf) ([3]; dog, in vivo, Male): 1100 ng·h/mL
- Cmax ([3]; dog, in vivo, Male): 6780 ng/mL
- MRT ([3]; dog, in vivo, Male): 9.6 min
- Tmax ([3]; dog, in vivo, Male): 10.2 min
